# Source: ChEMBL document CHEMBL2385042, “Diterpenoids with diverse skeletons from the roots of Euphorbia micractina” (J Nat Prod, 2013)
# pIC50: −log10 of the molar value. Activity calls are given as the source filed them. No cut-off for these calls is given here.
# Columns and labels:
# [1] = molecular target: T1, Tyrosine-protein phosphatase non-receptor type 1 (Homo sapiens) (UniProt P18031); test: Inhibition of human recombinant GST-tagged PTP1B using para-nitrophenyl phosphate as substrate assessed as release of para-nitrophenol at 10 uM after 10 mins by spectrophotometric analysis
# T1 sequence (whole entry): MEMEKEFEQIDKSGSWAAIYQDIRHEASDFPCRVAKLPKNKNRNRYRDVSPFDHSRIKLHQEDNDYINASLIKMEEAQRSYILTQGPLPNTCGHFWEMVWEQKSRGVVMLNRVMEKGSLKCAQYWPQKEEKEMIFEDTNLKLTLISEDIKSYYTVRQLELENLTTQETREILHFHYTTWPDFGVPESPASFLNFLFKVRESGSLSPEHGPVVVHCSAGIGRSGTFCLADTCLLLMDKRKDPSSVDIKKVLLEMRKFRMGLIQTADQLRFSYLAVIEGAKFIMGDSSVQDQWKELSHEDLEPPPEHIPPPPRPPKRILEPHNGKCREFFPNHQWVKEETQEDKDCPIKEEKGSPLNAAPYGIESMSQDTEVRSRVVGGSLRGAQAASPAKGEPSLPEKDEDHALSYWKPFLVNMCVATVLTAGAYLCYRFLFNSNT
# [2] = tested on: HCT-8; test: Cytotoxicity against human HCT8 cells assessed as cell viability at 10 uM after 96 hrs by MTT assay; type: functional, cell-based
# [3] = tested on: KETR3; test: Cytotoxicity against human Ketr3 cells assessed as cell viability at 10 uM after 96 hrs by MTT assay; type: functional, cell-based
# [4] = tested on: MCF7; test: Cytotoxicity against human MCF7 cells assessed as cell viability at 10 uM after 96 hrs by MTT assay; type: functional, cell-based
# [5] = tested on: Bel-7402; test: Cytotoxicity against human Bel7402 cells assessed as cell viability at 10 uM after 96 hrs by MTT assay; type: functional, cell-based
# [6] = tested on: A549; test: Cytotoxicity against human A549 cells assessed as cell viability at 10 uM after 96 hrs by MTT assay; type: functional, cell-based
# [7] = tested on: BGC-823; test: Cytotoxicity against human BGC823 cells assessed as cell viability at 10 uM after 96 hrs by MTT assay; type: functional, cell-based
# [8] = tested on: Human immunodeficiency virus 1; test: Antiviral activity against HIV1 infected in human 293T cells assessed as inhibition of viral replication at 10 uM incubated for 15 mins prior to infection measured after 48 hrs by luciferase reporter gene assay; type: functional, organism-based
# [9] = tested on: Human immunodeficiency virus 1; test: Antiviral activity against HIV1 infected in human 293T cells assessed as inhibition of viral replication incubated for 15 mins prior to infection measured after 48 hrs by luciferase reporter gene assay; type: functional, organism-based; conditions: Human immunodeficiency virus 1, HEK-293T
Structure (SMILES),inhibition [1],pIC50 [9],Activity [2],Activity [3],Activity [4],Activity [5],Activity [6],Activity [7],Activity [8]
CCO[C@@H]1[C@@H]2[C@H](CC[C@@]3(C)[C@H](O)[C@H]4[C@@H](OC(=O)/C=C/c5ccccc5)[C@@H](C)C[C@]4(O)C(=O)[C@@]13C)C2(C)C,inactive,–,inactive,inactive,inactive,inactive,inactive,inactive,inactive
C[C@H]1C[C@]2(O)C(=O)[C@@]3(C)[C@@H]4O[C@H]4C(C)(C)[C@@H](O)CC[C@@]3(C)[C@H](O)[C@H]2[C@H]1OC(=O)/C=C/c1ccccc1,inactive,–,inactive,inactive,inactive,inactive,inactive,inactive,inactive
O=C1Nc2ccc(Cl)cc2[C@@](C#CC2CC2)(C(F)(F)F)O1 [EFAVIRENZ],–,7.22,–,–,–,–,–,–,–
CO[C@@H]1[C@@H]2[C@H](CC[C@@]3(C)[C@H](O)[C@H]4[C@@H](O)[C@@H](C)C[C@]4(OC(=O)/C=C/c4ccccc4)C(=O)[C@@]23C)C1(C)C,inactive,–,inactive,inactive,inactive,inactive,inactive,inactive,inactive
CO[C@@H]1[C@@H]2[C@H](CC[C@@]3(C)[C@H](O)[C@H]4[C@@H](OC(=O)/C=C/c5ccccc5)[C@@H](C)C[C@]4(O)C(=O)[C@@]13C)C2(C)C,inactive,–,inactive,inactive,inactive,inactive,inactive,inactive,inactive

# More lines, main results first:
inhibition [1],pIC50 [9],Structure (SMILES),Activity [2],Activity [3],Activity [4],Activity [5],Activity [6],Activity [7],Activity [8]
inactive,–,C[C@H]1C[C@]2(O)C(=O)[C@@]3(C)[C@@H]4[C@@H](O)C(C)(C)[C@H]4CC[C@@]3(C)[C@H](O)[C@H]2[C@H]1OC(=O)c1ccccc1,inactive,inactive,inactive,inactive,inactive,inactive,inactive
inactive,–,C[C@H]1C[C@]2(O)C(=O)[C@@]3(C)[C@@H]4[C@@H](O)C(C)(C)[C@H]4CC[C@@]3(C)[C@H](O)[C@H]2[C@H]1OC(=O)/C=C/c1ccccc1,inactive,inactive,inactive,inactive,inactive,inactive,inactive
inactive,–,C[C@H]1C[C@]2(O)C(=O)[C@@]3(C)[C@@H]4O[C@H]4C(C)(C)[C@@H](O)CC[C@@]3(C)[C@H](O)[C@H]2[C@H]1OC(=O)c1ccccc1,inactive,inactive,inactive,inactive,inactive,inactive,inactive
inactive,–,CCO[C@@H]1[C@@H]2[C@H](CC[C@@]3(C)[C@H](O)[C@H]4[C@@H](OC(=O)c5ccccc5)[C@@H](C)C[C@]4(O)C(=O)[C@@]13C)C2(C)C,inactive,inactive,inactive,inactive,inactive,inactive,inactive
inactive,–,C[C@H]1C[C@]2(O)C(=O)[C@@]3(C)[C@H](O)[C@@H]4[C@H](CC[C@@]3(C)[C@H](O)[C@H]2[C@H]1OC(=O)c1ccccc1)C4(C)C,inactive,inactive,inactive,inactive,inactive,inactive,inactive
inactive,–,C[C@H]1C[C@]2(O)C(=O)[C@@]3(C)[C@H](O)[C@@H]4[C@H](CC[C@@]3(C)[C@H](O)[C@H]2[C@H]1OC(=O)/C=C/c1ccccc1)C4(C)C,inactive,inactive,inactive,inactive,inactive,inactive,inactive
inactive,–,CO[C@@H]1[C@@H]2[C@H](CC[C@@]3(C)[C@H](O)[C@H]4[C@@H](O)[C@@H](C)C[C@]4(OC(=O)c4ccccc4)C(=O)[C@@]13C)C2(C)C,inactive,inactive,inactive,inactive,inactive,inactive,inactive
